Assay results: patent US9340590B2 (priority 2011, dated 2016)
Like-named read-outs stand apart in the source and are kept apart here. Positions of bridges follow the written chain, without caps; N, C: chain ends. Non-standard residues stand in square brackets, D forms with d. Residues, ends and D or L forms follow the SMILES beside them. 1Nal = N[C@@H](Cc1cccc2ccccc12)C(=O)O

What was measured:
Assay in all cases: cell-based
[1] = biological target: T1, hNav1.7 (Homo sapiens, UniProt Q15858); assay type: cell-based; settings: IonWorks Quattro; clamped to −110 mV, depolarized to −10 mV, 5 min after compound; n=2; read-out: IWQ Use Nav1.7
T1 sequence (Q15858 whole entry, looked up): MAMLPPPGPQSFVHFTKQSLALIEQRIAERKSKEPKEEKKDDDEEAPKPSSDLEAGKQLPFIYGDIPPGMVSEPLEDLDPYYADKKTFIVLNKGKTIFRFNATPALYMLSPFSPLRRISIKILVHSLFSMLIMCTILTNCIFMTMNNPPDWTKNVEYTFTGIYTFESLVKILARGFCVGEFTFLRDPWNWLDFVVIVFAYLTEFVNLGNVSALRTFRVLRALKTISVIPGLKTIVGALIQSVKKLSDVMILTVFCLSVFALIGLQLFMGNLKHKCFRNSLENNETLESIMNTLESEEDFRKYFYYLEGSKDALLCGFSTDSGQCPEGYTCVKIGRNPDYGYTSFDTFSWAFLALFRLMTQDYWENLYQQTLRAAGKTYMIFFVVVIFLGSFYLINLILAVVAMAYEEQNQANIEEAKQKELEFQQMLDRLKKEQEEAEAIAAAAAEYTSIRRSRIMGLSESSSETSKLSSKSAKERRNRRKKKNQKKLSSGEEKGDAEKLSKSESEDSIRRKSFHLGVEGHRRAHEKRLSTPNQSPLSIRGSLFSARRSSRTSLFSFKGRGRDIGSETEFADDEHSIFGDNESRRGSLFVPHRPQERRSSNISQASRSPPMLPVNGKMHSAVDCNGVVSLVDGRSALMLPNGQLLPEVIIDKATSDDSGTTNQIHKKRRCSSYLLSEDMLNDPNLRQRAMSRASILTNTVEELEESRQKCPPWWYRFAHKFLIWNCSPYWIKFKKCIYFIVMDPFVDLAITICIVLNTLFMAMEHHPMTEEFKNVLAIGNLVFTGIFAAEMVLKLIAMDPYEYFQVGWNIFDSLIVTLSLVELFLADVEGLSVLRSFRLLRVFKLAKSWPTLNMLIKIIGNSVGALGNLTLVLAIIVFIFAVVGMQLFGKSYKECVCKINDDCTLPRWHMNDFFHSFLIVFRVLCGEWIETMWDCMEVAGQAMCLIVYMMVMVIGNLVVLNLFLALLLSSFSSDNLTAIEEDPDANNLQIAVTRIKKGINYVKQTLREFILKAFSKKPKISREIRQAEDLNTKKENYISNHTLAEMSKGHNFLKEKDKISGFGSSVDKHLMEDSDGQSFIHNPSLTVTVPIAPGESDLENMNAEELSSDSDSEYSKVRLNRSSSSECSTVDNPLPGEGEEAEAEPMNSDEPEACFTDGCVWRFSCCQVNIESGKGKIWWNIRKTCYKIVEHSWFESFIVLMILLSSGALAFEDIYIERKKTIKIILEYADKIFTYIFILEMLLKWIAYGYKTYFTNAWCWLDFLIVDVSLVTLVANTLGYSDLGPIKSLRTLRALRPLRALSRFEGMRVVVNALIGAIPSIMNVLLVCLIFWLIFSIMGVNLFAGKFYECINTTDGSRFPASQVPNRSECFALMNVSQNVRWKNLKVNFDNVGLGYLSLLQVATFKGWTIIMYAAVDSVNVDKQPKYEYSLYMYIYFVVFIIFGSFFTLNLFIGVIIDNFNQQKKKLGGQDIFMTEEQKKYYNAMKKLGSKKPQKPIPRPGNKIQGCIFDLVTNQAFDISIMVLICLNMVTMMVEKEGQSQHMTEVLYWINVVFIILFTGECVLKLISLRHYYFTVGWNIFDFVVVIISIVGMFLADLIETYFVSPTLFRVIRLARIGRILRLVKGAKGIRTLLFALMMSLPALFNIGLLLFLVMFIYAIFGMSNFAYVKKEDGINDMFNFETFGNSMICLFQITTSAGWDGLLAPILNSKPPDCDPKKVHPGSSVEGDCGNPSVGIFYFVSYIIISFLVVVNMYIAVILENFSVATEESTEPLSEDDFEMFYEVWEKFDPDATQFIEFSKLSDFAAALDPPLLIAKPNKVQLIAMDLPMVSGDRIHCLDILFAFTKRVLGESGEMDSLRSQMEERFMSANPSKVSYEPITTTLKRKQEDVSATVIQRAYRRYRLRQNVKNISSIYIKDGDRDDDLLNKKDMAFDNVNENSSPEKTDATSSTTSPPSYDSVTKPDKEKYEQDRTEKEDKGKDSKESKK

[2] = biological target: T2, hNav1.3 (Homo sapiens, UniProt Q9NY46); assay type: cell-based; settings: for IC50: Nav1.3 Use IC50
[3] = biological target: T2, hNav1.3; settings: IonWorks Quattro; clamped to −110 mV, depolarized to −10 mV, 5 min after compound; n=2; read-out: IWQ Use Nav1.3
[4] = biological target: T1, hNav1.7; settings: Nav1.7 Use IC50
[5] = biological target: T3, hNav1.5 (Homo sapiens, UniProt Q14524); settings: IonWorks Quattro; clamped to −110 mV, depolarized to −10 mV, 5 min after compound; n=2; read-out: IWQ Use Nav1.5
T3 sequence (Q14524 whole entry, looked up): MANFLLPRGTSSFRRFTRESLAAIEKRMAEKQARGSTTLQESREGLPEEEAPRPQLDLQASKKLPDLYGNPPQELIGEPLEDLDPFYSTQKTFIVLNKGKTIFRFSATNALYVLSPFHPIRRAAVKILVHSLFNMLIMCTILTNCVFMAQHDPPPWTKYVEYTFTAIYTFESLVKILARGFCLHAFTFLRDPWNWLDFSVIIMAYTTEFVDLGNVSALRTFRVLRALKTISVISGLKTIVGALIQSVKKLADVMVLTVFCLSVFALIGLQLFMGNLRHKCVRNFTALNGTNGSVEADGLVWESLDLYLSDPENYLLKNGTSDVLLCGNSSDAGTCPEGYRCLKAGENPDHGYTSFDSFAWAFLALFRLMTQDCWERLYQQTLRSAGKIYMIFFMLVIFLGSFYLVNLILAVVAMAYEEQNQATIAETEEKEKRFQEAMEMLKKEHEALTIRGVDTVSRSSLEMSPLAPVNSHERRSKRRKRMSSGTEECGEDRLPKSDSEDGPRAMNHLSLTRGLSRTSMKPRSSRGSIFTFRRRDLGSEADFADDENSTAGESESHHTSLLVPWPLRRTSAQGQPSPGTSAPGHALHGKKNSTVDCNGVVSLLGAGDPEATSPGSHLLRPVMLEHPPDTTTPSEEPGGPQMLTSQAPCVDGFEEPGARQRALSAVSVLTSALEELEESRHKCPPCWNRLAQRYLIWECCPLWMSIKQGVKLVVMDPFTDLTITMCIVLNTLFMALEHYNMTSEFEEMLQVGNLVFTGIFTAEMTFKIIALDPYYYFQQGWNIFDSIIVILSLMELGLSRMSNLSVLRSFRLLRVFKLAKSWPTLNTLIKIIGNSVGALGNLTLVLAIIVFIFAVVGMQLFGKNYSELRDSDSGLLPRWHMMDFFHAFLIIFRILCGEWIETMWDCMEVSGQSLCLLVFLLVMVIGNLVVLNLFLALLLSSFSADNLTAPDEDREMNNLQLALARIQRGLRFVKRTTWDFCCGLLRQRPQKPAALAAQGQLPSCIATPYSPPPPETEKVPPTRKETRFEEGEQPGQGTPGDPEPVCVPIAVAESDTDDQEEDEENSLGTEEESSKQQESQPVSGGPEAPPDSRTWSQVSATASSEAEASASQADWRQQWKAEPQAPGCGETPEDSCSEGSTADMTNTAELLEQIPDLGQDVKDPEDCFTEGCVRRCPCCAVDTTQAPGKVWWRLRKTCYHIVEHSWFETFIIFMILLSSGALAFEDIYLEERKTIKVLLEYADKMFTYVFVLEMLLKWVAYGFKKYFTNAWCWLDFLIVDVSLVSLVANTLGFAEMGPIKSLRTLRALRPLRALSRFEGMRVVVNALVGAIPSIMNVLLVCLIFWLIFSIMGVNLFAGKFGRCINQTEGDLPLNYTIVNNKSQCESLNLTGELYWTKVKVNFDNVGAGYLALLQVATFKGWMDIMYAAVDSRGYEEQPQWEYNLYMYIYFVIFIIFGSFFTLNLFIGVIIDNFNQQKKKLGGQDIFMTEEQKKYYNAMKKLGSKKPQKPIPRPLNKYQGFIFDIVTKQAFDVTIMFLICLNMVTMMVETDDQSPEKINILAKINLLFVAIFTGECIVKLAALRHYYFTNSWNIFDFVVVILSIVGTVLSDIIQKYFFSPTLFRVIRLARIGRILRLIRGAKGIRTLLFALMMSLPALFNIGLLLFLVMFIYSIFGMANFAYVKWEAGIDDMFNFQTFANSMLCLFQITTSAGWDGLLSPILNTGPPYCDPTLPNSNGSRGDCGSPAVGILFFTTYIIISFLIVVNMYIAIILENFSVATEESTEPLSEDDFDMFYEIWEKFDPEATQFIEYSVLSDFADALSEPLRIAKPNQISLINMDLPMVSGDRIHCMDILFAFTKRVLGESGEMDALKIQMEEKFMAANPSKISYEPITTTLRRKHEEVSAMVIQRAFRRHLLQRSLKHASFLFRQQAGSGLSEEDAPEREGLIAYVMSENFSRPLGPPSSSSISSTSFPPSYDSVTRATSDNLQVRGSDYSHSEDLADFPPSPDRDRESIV

[6] = biological target: T3, hNav1.5

| Compound | IC50 [1] [nM] | IC50 [2] [nM] | IC50 [3] [nM] | IC50 [4] [nM] | IC50 [5] [nM] | potency against NaV1.3, in words [2] | IC50 [6] [nM] |
| --- | --- | --- | --- | --- | --- | --- | --- |
| CC[C@H](C)[C@@H]1NC(=O)[C@@H]2CSSC[C@@H]3NC(=O)[C@H](C(C)C)NC(=O)[C@H](CC(C)C)NC(=O)[C@H](CC(N)=O)NC(=O)[C@@H]4CCCN4C(=O)[C@H](CCCNC(=N)N)NC(=O)[C@H](CSSC[C@H](NC(=O)[C@@H](N)CC(=O)O)C(=O)N[C@@H](CC(C)C)C(=O)NCC(=O)N[C@@H](Cc4ccccc4)C(=O)N[C@@H](CC(C)C)C(=O)N[C@@H](CCCNC(=N)N)C(=O)N[C@@H](CCCCN)C(=O)N2)NC(=O)[C@H](CSSC[C@@H](C(=O)N[C@@H](CCCCN)C(=O)N[C@@H](Cc2ccc(O)cc2)C(=O)N[C@H](C(=O)N[C@@H](Cc2ccccc2)C(N)=O)C(C)C)NC(=O)[C@H](Cc2c[nH]c4ccccc24)NC(=O)[C@H](CCCCN)NC(=O)[C@H](Cc2cnc[nH]2)NC(=O)[C@H]([C@@H](C)O)NC(=O)[C@H](CCCNC(=N)N)NC(=O)[C@H](CO)NC3=O)NC(=O)[C@H](CCCCN)NC(=O)[C@H](CC(=O)O)NC(=O)[C@H](CC(N)=O)NC(=O)[C@H](CC(=O)O)NC(=O)[C@@H]2CCCN2C1=O [SEQ ID NO: 244] (H-DCLGFLRKCIPDNDKCCRPNLVCSRTHKWCKYVF-NH2; disulfide 2-17, 9-23, 16-30) | 60 | 18 | 40 | 26 | 6420 |  |  |
| CC[C@H](C)[C@@H]1NC(=O)[C@@H]2CSSC[C@@H]3NC(=O)[C@H](C(C)C)NC(=O)[C@H](CC(C)C)NC(=O)[C@H](CC(N)=O)NC(=O)[C@@H]4CCCN4C(=O)[C@H](CCCNC(=N)N)NC(=O)[C@H](CSSC[C@H](NC(=O)[C@@H](N)CC(=O)O)C(=O)N[C@@H](CC(C)C)C(=O)NCC(=O)N[C@@H](Cc4ccc(I)cc4)C(=O)N[C@@H](CCSC)C(=O)N[C@@H](CCCNC(=N)N)C(=O)N[C@@H](CCCCN)C(=O)N2)NC(=O)[C@H](CSSC[C@@H](C(=O)N[C@@H](CCCCN)C(=O)N[C@@H](Cc2ccc(O)cc2)C(=O)N[C@H](C(=O)N[C@@H](Cc2ccccc2)C(N)=O)C(C)C)NC(=O)[C@H](Cc2c[nH]c4ccccc24)NC(=O)[C@H](CCCCN)NC(=O)[C@H](Cc2c[nH]cn2)NC(=O)[C@H]([C@@H](C)O)NC(=O)[C@H](CCCNC(=N)N)NC(=O)[C@H](CO)NC3=O)NC(=O)[C@H](CCCCN)NC(=O)[C@H](CC(=O)O)NC(=O)[C@H](CC(N)=O)NC(=O)[C@H](CC(=O)O)NC(=O)[C@@H]2CCCN2C1=O [SEQ ID NO: 247] | 160 | 90 | 20 | 247 | 6160 | increased potency |  |
| CC[C@H](C)[C@@H]1NC(=O)[C@@H]2CSSC[C@@H]3NC(=O)[C@H](C(C)C)NC(=O)[C@H](CC(C)C)NC(=O)[C@H](CC(N)=O)NC(=O)[C@@H]4CCCN4C(=O)[C@H](CCCNC(=N)N)NC(=O)[C@H](CSSC[C@H](NC(=O)[C@@H](N)CC(=O)O)C(=O)N[C@@H](CC(C)C)C(=O)NCC(=O)N[C@@H](Cc4ccccc4)C(=O)N[C@@H](CCSC)C(=O)N[C@@H](CCCNC(=N)N)C(=O)N[C@@H](CCCCN)C(=O)N2)NC(=O)[C@H](CSSC[C@@H](C(=O)N[C@@H](CCCCN)C(=O)N[C@@H](Cc2cccc4ccccc24)C(=O)N[C@H](C(=O)N[C@@H](Cc2ccccc2)C(N)=O)C(C)C)NC(=O)[C@H](Cc2c[nH]c4ccccc24)NC(=O)[C@H](CCCCN)NC(=O)[C@H](Cc2cnc[nH]2)NC(=O)[C@H]([C@@H](C)O)NC(=O)[C@H](CCCNC(=N)N)NC(=O)[C@H](CO)NC3=O)NC(=O)[C@H](CCCCN)NC(=O)[C@H](CC(=O)O)NC(=O)[C@H](CC(N)=O)NC(=O)[C@H](CC(=O)O)NC(=O)[C@@H]2CCCN2C1=O [[1-Nal32]GpTx-1(1-34)] (H-DCLGFMRKCIPDNDKCCRPNLVCSRTHKWCK[1Nal]VF-NH2; disulfide 2-17, 9-23, 16-30) |  | 12 |  |  |  |  | 988 |
| CC[C@H](C)[C@@H]1NC(=O)[C@@H]2CSSC[C@@H]3NC(=O)[C@H](C(C)C)NC(=O)[C@H](CC(C)C)NC(=O)[C@H](CC(N)=O)NC(=O)[C@@H]4CCCN4C(=O)[C@H](CCCNC(=N)N)NC(=O)[C@H](CSSC[C@H](NC(=O)[C@@H](N)CC(=O)O)C(=O)N[C@@H](CC(C)C)C(=O)NCC(=O)N[C@@H](C)C(=O)N[C@@H](Cc4ccccc4)C(=O)N[C@@H](CCCNC(=N)N)C(=O)N[C@@H](CCCCN)C(=O)N2)NC(=O)[C@H](CSSC[C@@H](C(=O)N[C@@H](CCCCN)C(=O)N[C@@H](Cc2ccc(O)cc2)C(=O)N[C@H](C(=O)N[C@@H](Cc2ccccc2)C(N)=O)C(C)C)NC(=O)[C@H](Cc2c[nH]c4ccccc24)NC(=O)[C@H](CCCNC(=N)N)NC(=O)[C@H](Cc2cnc[nH]2)NC(=O)[C@H](CC(C)C)NC(=O)[C@H](CCCNC(=N)N)NC(=O)[C@H](CO)NC3=O)NC(=O)[C@H](CCCCN)NC(=O)[C@H](CC(=O)O)NC(=O)[C@H](CC(N)=O)NC(=O)[C@H](CC(=O)O)NC(=O)[C@@H]2CCCN2C1=O [[Ala5;Phe6;Leu26;Arg28]GpTx-1(1-34)] (H-DCLGAFRKCIPDNDKCCRPNLVCSRLHRWCKYVF-NH2; disulfide 2-17, 9-23, 16-30) |  | 8 |  | 2 |  |  |  |
| CC[C@H](C)[C@@H]1NC(=O)[C@@H]2CSSC[C@@H]3NC(=O)[C@H](C(C)C)NC(=O)[C@H](CC(C)C)NC(=O)[C@H](CC(N)=O)NC(=O)[C@@H]4CCCN4C(=O)[C@H](CCCNC(=N)N)NC(=O)[C@H](CSSC[C@H](NC(=O)[C@@H](N)CC(=O)O)C(=O)N[C@@H](CC(C)C)C(=O)NCC(=O)N[C@@H](C)C(=O)N[C@@H](Cc4c[nH]c5ccccc45)C(=O)N[C@@H](CCCNC(=N)N)C(=O)N[C@@H](CCCCN)C(=O)N2)NC(=O)[C@H](CSSC[C@@H](C(=O)N[C@@H](CCCCN)C(=O)N[C@@H](Cc2ccc(O)cc2)C(=O)N[C@H](C(=O)N[C@@H](Cc2ccccc2)C(N)=O)C(C)C)NC(=O)[C@H](Cc2c[nH]c4ccccc24)NC(=O)[C@H](CCCCN)NC(=O)[C@H](Cc2cnc[nH]2)NC(=O)[C@H]([C@@H](C)O)NC(=O)[C@H](CCCNC(=N)N)NC(=O)[C@H](CO)NC3=O)NC(=O)[C@H](CCCCN)NC(=O)[C@H](CC(=O)O)NC(=O)[C@H](CC(N)=O)NC(=O)[C@H](CC(=O)O)NC(=O)[C@@H]2CCCN2C1=O [[Ala5;Trp6]GpTx-1(1-34)] (H-DCLGAWRKCIPDNDKCCRPNLVCSRTHKWCKYVF-NH2; disulfide 2-17, 9-23, 16-30) |  | 81 |  | 57 |  |  |  |
| CC[C@H](C)[C@@H]1NC(=O)[C@@H]2CSSC[C@@H]3NC(=O)[C@H](C(C)C)NC(=O)[C@H](CC(C)C)NC(=O)[C@H](CC(N)=O)NC(=O)[C@@H]4CCCN4C(=O)[C@H](CCC(=O)O)NC(=O)[C@H](CSSC[C@H](NC(=O)[C@@H](N)CC(=O)O)C(=O)N[C@@H](CC(C)C)C(=O)NCC(=O)N[C@@H](Cc4ccccc4)C(=O)N[C@@H](CCSC)C(=O)N[C@@H](CCCNC(=N)N)C(=O)N[C@@H](CCCCN)C(=O)N2)NC(=O)[C@H](CSSC[C@@H](C(=O)N[C@@H](CCCCN)C(=O)N[C@@H](Cc2ccc(O)cc2)C(=O)N[C@H](C(=O)N[C@@H](Cc2ccccc2)C(N)=O)C(C)C)NC(=O)[C@H](Cc2c[nH]c4ccccc24)NC(=O)[C@H](CCCCN)NC(=O)[C@H](Cc2cnc[nH]2)NC(=O)[C@H]([C@@H](C)O)NC(=O)[C@H](CCCNC(=N)N)NC(=O)[C@H](CO)NC3=O)NC(=O)[C@H](CCCCN)NC(=O)[C@H](CC(=O)O)NC(=O)[C@H](CC(N)=O)NC(=O)[C@H](CC(=O)O)NC(=O)[C@@H]2CCCN2C1=O [[Glu18]GpTx-1(1-34)] (H-DCLGFMRKCIPDNDKCCEPNLVCSRTHKWCKYVF-NH2; disulfide 2-17, 9-23, 16-30) |  | 98 |  | 18 |  |  |  |
| CC[C@H](C)[C@@H]1NC(=O)[C@@H]2CSSC[C@@H]3NC(=O)[C@H](C(C)C)NC(=O)[C@H](CC(C)C)NC(=O)[C@H](CC(N)=O)NC(=O)[C@@H]4CCCN4C(=O)[C@H](CCCNC(=N)N)NC(=O)[C@H](CSSC[C@H](NC(=O)[C@@H](N)CC(=O)O)C(=O)N[C@@H](CC(C)C)C(=O)NCC(=O)N[C@@H](Cc4ccccc4)C(=O)N[C@@H](CCSC)C(=O)N[C@@H](CCCNC(=N)N)C(=O)N[C@@H](CCCCN)C(=O)N2)NC(=O)[C@H](CSSC[C@@H](C(=O)N[C@@H](CCCCN)C(=O)N[C@@H](Cc2ccc(O)cc2)C(=O)N[C@H](C(=O)N[C@@H](Cc2ccccc2)C(N)=O)C(C)C)NC(=O)[C@H](Cc2c[nH]c4ccccc24)NC(=O)[C@H](CCCCN)NC(=O)[C@H](Cc2cnc[nH]2)NC(=O)[C@H](CCC(=O)O)NC(=O)[C@H](CCCNC(=N)N)NC(=O)[C@H](CO)NC3=O)NC(=O)[C@H](CCCCN)NC(=O)[C@H](CC(=O)O)NC(=O)[C@H](CC(N)=O)NC(=O)[C@H](CC(=O)O)NC(=O)[C@@H]2CCCN2C1=O [[Glu26]GpTx-1(1-34)] (H-DCLGFMRKCIPDNDKCCRPNLVCSREHKWCKYVF-NH2; disulfide 2-17, 9-23, 16-30) |  | 216 |  | 52 |  |  |  |
